Patent US12377076B2, “Compounds for treating lymphoma or a T-cell malignant disease” (Purdue Pharma L.P., priority 2018, dated 2025)
Several values for one entry are separate records, joined by “and”; a condition that tells them apart may be missing. Equal entries are not always repeated.

How the values were obtained:
lymphocytes = assay: PK/PD safety modelling: dose-nadir relationship of blood cell counts, lymphocytes; format: in vivo, human; conditions: (% CV) in table
Excerpt: (§1) The obtained exposure parameters (Cmax and AUC) and PK profiles from individual patients and the respective haematological laboratory data were collected over the treatment duration and analysed regarding the relationship to peripheral blood cell counts (lymphocytes, neutrophils, platelets).
(§2) The nadir was defined as the lowest blood cell count observed after the first administration. The nadir was extracted irrespective of the treatment duration, thus, the analysis data set included patients who received only one dose and patients who received multiple treatment cycles with tinostamustine. The baseline blood cell count, which was the count before the first administration, was included in the analysis as the cell count at dose, Cmax or AUC equal to 0. Thus, it was assumed that the baseline blood cell count was the effect level without treatment with tinostamustine. With an exploratory analysis all observations each predictor-nadir relationship was fitted with a least-squares method in R. The dose-nadir relationship was further investigated with a non-linear mixed effects approach. The advantage of the non-linear mixed effects approach compared to the exploratory analysis was that different external and patient factors could be investigated at the same time and the between patient variability can be described. […]

[1] = test system: patients with relapsed/refractory hematologic malignancies; assay: Tumour assessment: response to treatment, all HM; format: in vivo, human; conditions: all 46 patients
Excerpt: (§3) Response to treatment included evaluation of overall response rate (patients with a CR plus patients with a PR), clinical benefit (CB) rate (patients with CR plus patients with PR plus patients with stable disease (SD)), progression free survival, and overall survival according to the relevant response criteria.

neutrophils = assay: PK/PD safety modelling: dose-nadir relationship of blood cell counts, neutrophils; format: in vivo, human; conditions: (% CV) in table
Excerpt: as §1, §2

patients with HL = assay: Tumour assessment: response to treatment, patients with HL; format: in vivo, human
Excerpt: as §3

patients with MM = assay: Tumour assessment: response to treatment, patients with multiple myeloma; format: in vivo, human; conditions: 19 patients with MM
Excerpt: as §3

platelets = assay: PK/PD safety modelling: dose-nadir relationship of blood cell counts, platelets; format: in vivo, human; conditions: (% CV) in table
Excerpt: as §1, §2

patients with lymphoma = assay: Tumour assessment: response to treatment, patients with lymphoma; format: in vivo, human
Excerpt: as §3

lymphoma = conditions: in vitro and in vivo models; cited from earlier work

Q: For Cn1c(CCCCCCC(=O)NO)nc2cc(N(CCCl)CCCl)ccc21 [tinostamustine], which “EC50 (dose required to reduce the cell count by 50%)” value (lymphocytes) is on record?
A: 28.3 mg/m^2 and 28.3 (40%) mg/m^2

Q: And the “best response complete response (CR)” value [1]?
A: 7%

Q: And the “best response of PD” value [1]?
A: 41%

Q: What about the “best response partial response (PR)” value [1] of the same molecule?
A: 21%

Q: And the “clinical benefit rate (CBR)” value [1]?
A: 45%

Q: What about the “overall response rate (ORR)” value [1] of the same molecule?
A: 28%

Q: What about the “EC50 (dose required to reduce the cell count by 50%)” value (neutrophils) of the same molecule?
A: 49.1 mg/m^2 and 49.1 (70%) mg/m^2

Q: And the response (patients with HL; 1 patient with refractory HL treated with 120 m/m^2 over 6 cycles)?
A: achieved a CR

Q: What about the “patients having a response from SD to CR” value (patients with HL; 10 patients with HL) of the same molecule?
A: 70%

Q: What about the CBR (patients with MM) of the same molecule?
A: 42%

Q: And the ORR (patients with MM)?
A: 11%

Q: What about the “best response CR” value (patients with MM) of the same molecule?
A: 0 patients

Q: And the “best response PR” value (patients with MM)?
A: 11%

Q: What about the “best response SD” value (patients with MM) of the same molecule?
A: 31%

Q: And the “best response of PD” value (patients with MM)?
A: 47%

Q: And the “EC50 (dose required to reduce the cell count by 50%)” value (platelets)?
A: 55.5 mg/m^2 and 55.5 (72%) mg/m^2

Q: And the CBR (patients with lymphoma; 27 patients with lymphoma)?
A: 62%

Q: What about the ORR (patients with lymphoma; 27 patients with lymphoma) of the same molecule?
A: 40%

Q: And the “best response CR” value (patients with lymphoma; 27 patients with lymphoma)?
A: 11%

Q: And the “best response PR” value (patients with lymphoma; 27 patients with lymphoma)?
A: 30%

Q: What about the “best response SD” value (patients with lymphoma; 27 patients with lymphoma) of the same molecule?
A: 22%

Q: What about the “best response of PD” value (patients with lymphoma; 27 patients with lymphoma) of the same molecule?
A: 37%

Q: What about the “ORR and CBR” value (patients with lymphoma; LYM60 mg/m^2/30 min cohort) of the same molecule?
A: 100%

Q: What about the activity against lymphoma (lymphoma) of the same molecule?
A: potent activity
